Holding throughout (assay): relative viability (nuclei count vs DMSO), 5 days (fraction); higher = more cells survive
Compound in the assay “IPA-3 + Navitoclax”: C1=CC=C2C(=C1)C=CC(=C2SSC3=C(C=CC4=CC=CC=C43)O)O [IPA-3] + CC1(C)CCC(c2ccc(Cl)cc2)=C(CN2CCN(c3ccc(C(=O)NS(=O)(=O)c4ccc(N[C@H](CCN5CCOCC5)CSc5ccccc5)c(S(=O)(=O)C(F)(F)F)c4)cc3)CC2)C1 [Navitoclax] (partner 0.5 µM)
An outline of the steps: (§1)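 For relative viability, nuclei counts in treated wells were divided by those in vehicle wells. Lung cancer cell lines had been pin-tool dosed in 1536-well plates the day after seeding and cultured for 5 days, then fixed and stained in one step (final 0.05% Triton X-100, 1% formaldehyde, 1 ug/ml Hoechst) and imaged at 4×. Doses were one drug alone or a fixed anchor-drug dose plus five library-drug doses (not always all listed) in √10 steps, and values are duplicate-plate medians.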

Compound in the assay “IPA-3 + Tozasertib”: C1=CC=C2C(=C1)C=CC(=C2SSC3=C(C=CC4=CC=CC=C43)O)O [IPA-3] + Cc1cc(Nc2cc(N3CCN(C)CC3)nc(Sc3ccc(NC(=O)C4CC4)cc3)n2)n[nH]1 [Tozasertib] (partner 0.1 µM)
In outline: as §1

Compound in the assay “IPA-3 + Phenformin”: C1=CC=C2C(=C1)C=CC(=C2SSC3=C(C=CC4=CC=CC=C43)O)O [IPA-3] + N=C(N)NC(=N)NCCc1ccccc1 [Phenformin] (partner 250 µM)
In outline:
as §1

Compound in the assay “Doramapimod + Pictilisib”: Cc1ccc(-n2nc(C(C)(C)C)cc2NC(=O)Nc2ccc(OCCN3CCOCC3)c3ccccc23)cc1 [Doramapimod] + CS(=O)(=O)N1CCN(Cc2cc3nc(-c4cccc5[nH]ncc45)nc(N4CCOCC4)c3s2)CC1 [Pictilisib] (partner 1 µM)
In outline:
as §1

For UMC-11, the relative viability was found to be 0.319 with IPA-3 + Navitoclax (first compound 0.2 µM); 0.306 with IPA-3 + Navitoclax (first compound 0.6325 µM); 0.321 in the assay with IPA-3 + Navitoclax (first compound 2 µM); 0.367 with IPA-3 + Navitoclax (first compound 6.325 µM); 0.462 with IPA-3 + Navitoclax (first compound 20 µM); 0.202 in the assay with IPA-3 + Tozasertib (first compound 0.2 µM). The relative viability was 0.205 with IPA-3 + Tozasertib (first compound 0.6325 µM); 0.215 with IPA-3 + Tozasertib (first compound 2 µM); 0.224 with IPA-3 + Tozasertib (first compound 6.325 µM); 0.225 with IPA-3 + Tozasertib (first compound 20 µM); 0.391 with IPA-3 + Phenformin (first compound 0.2 µM); 0.336 with IPA-3 + Phenformin (first compound 0.6325 µM). Besides, the relative viability in the assay with IPA-3 + Phenformin (first compound 2 µM) was 0.316; with IPA-3 + Phenformin (first compound 6.325 µM) it was 0.341; with IPA-3 + Phenformin (first compound 20 µM) it was 0.357; in the assay with Doramapimod + Pictilisib (first compound 0.02 µM), 0.726; with Doramapimod + Pictilisib (first compound 0.06325 µM) it was 0.759; with Doramapimod + Pictilisib (first compound 0.2 µM), 0.726. Moreover, the relative viability with Doramapimod + Pictilisib (first compound 0.6325 µM) worked out at 0.547; with Doramapimod + Pictilisib (first compound 2 µM) it was 0.615.

Values taken from the supplement of paper PMC10307832.
